Experimental data taken from patent US20110294873A1, “Gene Transfer Vectors Comprising At Least One Isolated DNA Molecule Having Insulator Or Boundary Properties And Methods To Identify The Same” (UNIVERSITÉ DE LAUSANNE, priority 2008, published 2011).
Entries after “also recorded” stand apart in the source; their conditions may differ.

Key:
Assay type in all cases: cell-based, human
[1] = system: histones H3, H4, H2A.Z on GFP and DsRed sequences in HeLa clones; experiment: Chromatin immunoprecipitation of histone modifications on telomeric transgenes; details: clone B09
Description: Antibodies against acetylated H3 (06-599), acetylated H4 (06-866) and trimethylated H3K9 (07-442) were obtained from Upstate biotechnology. Antibody against H2A.Z (ab4174) was purchased from Abcam. HeLa cells were harvested at a confluence of 90% and cross-linked with 1% formaldehyde for 4 min. After lysis of the nuclei, chromatin was sonicated to obtain fragments of ˜1000 pb and digested with BamHI. The chromatin solution was diluted to a volume of 300 μL in a buffer containing 200 mM HEPES, 2M NaCl, 20 mM EDTA, 0.1% NaDoc, 1% Triton X-100, 1 mg/mL BSA. Chromatin fragments were precleared 30 min with 10 μL rProtein A Sepharose (Amersham Biosciences) and supernatants were incubated at 4° C. overnight with 5 μL of antibody. Immunoprecipitated complexes were incubated with 10 μL rProtein A Sepharose and pellets were washed 3 times with IP buffer (20 mM HEPES, 0.2M NaCl, 2 mM EDTA, 0.1% NaDoc, 1% Triton X-100). Immunoprecipitated complexes were eluted in 100 mM Tris/HCl, 1% SDS and cross-links were reversed at 65° C. for 1 hour. Precipitated DNAs were eluted in 50 μL TE.
Quantitative PCR was performed on 7700 Sequence detector (Applied Biosystems) using SYBR Green reagent (Eurogentec). Chromatin immuno-precipitation samples and chromatin input were diluted 10 fold before analysis. […]

[2] = system: telomeric transgenes (GFP, DsRed) in HeLa cells; experiment: Telomeric gene silencing quantitative assay (GFP/DsRed reporters, cytofluorometry); details: for transgene expression at telomeric positions: HeLa telomeric clones, agent in culture medium (TSA 1 μM 48 h, NaB 1 mM one week, 5azadC 3 μM 48 h, BrdU 50 μM one week)
Description: The minimal CMV promoter and EGFP and DsRed coding sequences (Clontech) were PCR amplified and cloned in both orientations in pBS-SK2 containing telomeric repeats, kindly provided by J. Baur (2). Puromycin resistance gene expressed from the CAG promoter was inserted upstream of DsRed, in a telomere-distal position. Four Gal4 binding site were introduced between EGFP and DsRed expression cassettes at AscI and BamHI restriction sites, yielding pGE1min-Gal and pGE2 min-Gal. Control plasmids were generated by deletion of the telomeric repeats. Plasmids encoding the Gal DNA binding domain alone (pCD-Gal-DBD), or fused to the CTF1 Proline rich (pCMV-Gal-Pro) or to the VP16 (pCMV-Gal-VP16) transcriptional activation domains were as described previously (31). Plasmids encoding Gal-CTF1 fusion mutations were previously described by Alevizopoulos et al. (1995). Plasmids used to generate stable populations expressing Gal4 derivatives were obtained by cloning Gal-fusion genes or the BFP gene in an expression vector carrying the MAR 1-68 and the SV40 promoter (15).
HeLa cells (Clontech) were cultivated at 37° C. and 5% CO2 in DMEM-F12 with 10% fetal bovine serum (Gibco). Histone deacetylation or DNA methylation studies were performed by supplementing the cell culture medium with either 1 μM of Trichostatin A (TSA, Wako) for 48 h, 1 mM of Sodium butyrate (Sigma) for one week, 3 μM of 5-aza-2′-deoxycytidine (5azadC, Sigma) for 48 h, or 50 μM of Bromo-deoxyuridine (BrdU, Applichem) for one week. Transfections were performed using the Fugene 6 transfection reagent following instructions from the manufacturer (Roche). Stable clones were obtained by transfection of linearized plasmids pGEmin-Gal, pGE2 min-Gal or their respective controls. Cells were selected with 2 μg/mL of puromycin for three weeks, and all analyses were performed at least two weeks after the end of selection, to allow for the silencing of the telomeric locus. Transient transfections were performed by co-transfection of a Gal-fusion encoding plasmid and a BFP encoding plasmid at a molar ratio of 9:1. Cytofluorometric assays of the fluorescent reporter proteins were performed 48 h later. Stable populations expressing Gal-DBD/Gal-Pro were obtained by co-transfecting the Gal-fusion expression plasmid, a BFP-encoding plasmid, and a Zeocin resistance plasmid at 45:45:10 weight ratio. Zeocin resistant cells displaying high BFP levels were sorted twice, and the amount of zeocin was increased to 1800 μg/mL with increments of 200 μg/mL, to ensure consistent and elevated levels of fusion protein expression. Fluorescence in situ hybridization (FISH) was performed as described previously (12, 15) using two colors labeling of the reporter plasmids and of the telomeric repeats.
In order to analyze both telomere-insulated and non-insulated genes co-integrated at the same telomeric locus, we generated the reporter plasmids shown in FIG. 17A. Reporter vectors consist of the green fluorescent protein (GFP) and red fluorescent protein (DsRed) coding sequences placed on either side of four DNA binding sites for the yeast GAL4 protein. Each reporter gene was placed under the control of a minimal CMV promoter, in an orientation mediating either convergent or divergent directions of transcription. An antibiotic resistance gene was placed adjacent to DsRed, while telomeric (TTAGGG)n repeats were placed next to the GFP expression cassette. […] These constructs were transfected, and antibiotic-resistant cells having stably integrated the transgenes in their genome were selected and sorted into monoclonal populations. […] Fluorescence in situ hybridization (FISH) analysis indicated a telomeric or subtelomeric transgene position for all retained clones (see FIG. 6 in the supplemental material). […]

[3] = system: Fr-MuLV LTR enhancer acting on GFP gene in HeLa cells; experiment: Quantitative double-reporter (BFP/GFP) enhancer-blocking assay, transient transfection; details: HeLa transient, 48 hours, GFP/BFP ratio, compared to full-length cHS4
Text: Panel A is a schematic illustration of the retroviral-mediated integration of a transgene expression cassette into a host cell genome upon viral infection. This cassette contains a transgene under the control of a retroviral LTR and is flanked by a genetic insulator element shielding a cellular gene at the site of integration from LTR-mediated up-regulation. In order to mimic events leading to gene transfer-mediated insertional activation in a plasmid-based assay system (B), plasmid constructs were designed containing a BFP gene under the control of a viral LTR enhancer-promoter and a GFP gene under the control of a minimal CMV promoter (P). Inserting a potent insulator in between the two reporter genes should prevent the expression over-activation of the GFP gene without affecting the BFP expression, as it should shield cellular gene from up-regulation at the site of integration of a viral vector without interfering with transgene expression. In addition, in order to insulate the whole construct itself either from the viral enhancer bi-directional activation in transient transfection (circular form of the plasmid) or from a neighboring cellular enhancer at the site of integration in stable transfection (integrated linearized form of the plasmid), a copy of the cHS4 insulator is inserted at the edge of the reporter gene expression cassettes
The plasmid constructs described in FIG. 26B were obtained as follows. The EGFP gene expressed from a minimal CMV promoter was PCR amplified from a pcDNA3-EGFP plasmid excluding the CMV enhancer. The EBFP gene was PCR amplified from the pEBFP-NI plasmid (Clontech). Both reporters were subcloned in a pBS2-SKP (Stratagene). The Fr-MuLV LTR was inserted upstream from the EBFP gene such that transcription from the LTR is directed towards EBFP, and a copy of the 1.2 kb cHS4 was inserted downstream from the EGFP gene. Insulator sequences were inserted between the Fr-MuLV LTR and the minimal CMV promoter driving GFP expression. The 250 bp cHS4 core was PCR amplified from the full-length cHS4 (GenBank accession number: U78775.2, amplification from position 1 to 250). A series of neutral DNA spacers of various lengths were PCR amplified from the mouse utrophin cDNA (GenBank accession number: BC062163.1, amplifications form position 355 to positions 605 and 1555).
HeLa cells were transfected using FuGENE 6 reagent (Roche Diagnostics) according to the manufacturer's recommendations. Equimolar amounts of the different plasmids were transfected in each experiment (using the pBS2-SKP backbone plasmid as carrier). Circular plasmids were used for transient transfections, while plasmids were linearized before stable transfections. To obtain stable populations, the reporter constructs were co-transfected with a puromycin resistance-encoding plasmid (pPUR, Clontech) with a molar ratio of 10:1 and cells were grown in Dulbecco's modified Eagle medium containing 10% fetal bovine serum and 0.5 μg/mL puromycin (all from GIBCO). Fluorescence analyses were acquired on the FACS Cyan (Dakocytomation) with the settings of 450 V on the SSC channel, 340 V for the GFP and 450 V for the BFP. Data analysis of the double-reporter assay consisted in normalizing the GFP fluorescence to the BFP fluorescence for each cell and averaging these values over the total cell population. FACS analyses were performed 48 hours after transfection for transient expression and after 2 to 3 weeks of selection post-transfection for stable expression. Data processing was performed using the FlowJo software.
Therefore, we designed a two-reporter gene assay whereby the potency of enhancer-blocker insulators can be quantified, and in which polar insulating activities can be distinguished from enhancer inhibition or from global gene silencing effects. […]

Molecule | transgene expression at telomeric positions [2] | enhancer-blocking (insulator) activity [3] | further results
CC(/C=C/C(=O)NO)=C\[C@@H](C)C(=O)c1ccc(N(C)C)cc1 [TSA, Trichostatin A] | strongly increase transgene expression |  | H3K9Me3 on DsRed and GFP sequences (ChIP) [1]: increase; H3 and H4 acetylation on DsRed and GFP sequences (ChIP) [1]: increase of the acetylation of both DsRed and GFP
CTF1: native transcription factor of the CTF/NF1 family, transiently expressed |  |  | reporter gene activation upon transient CTF1 expression ([2]; reporter with seven CTF/NF1 binding sites, internal chromosomal location): commensurate activation occurred for both reporter genes; boundary effect upon transient CTF1 expression ([2]; reporter with seven CTF/NF1 binding sites, telomeric transgenes): boundary effect was observed
Nc1ncn([C@H]2C[C@H](O)[C@@H](CO)O2)c(=O)n1 [5azadC, 5-aza-2′-deoxycytidine] | little effect on transgene expression |  | 
One binding site (20 bp element): single CTF/NF1 binding site from adenovirus type II origin of replication, 20 bp (DNA TTGGCAACGTGCCATAAGCA; listed as DNA, chemistry not given here) |  | responsible for most of the effect | enhancer-blocking (insulator) activity ([3]; listed as single binding site of 20 bp): approximately half of the insulating effect seen with the full-length cHS4
O=c1[nH]c(=O)n([C@H]2C[C@H](O)[C@@H](CO)O2)cc1Br [BrdU, Bromo-deoxyuridine] | increase in expression of the reporter genes, but to a lesser extent than that noted with TSA |  | 
CCCC(=O)[O-].[Na+] [NaB, Sodium butyrate] | lower unsilencing effects in some clones |  | telomeric gene expression ([2]; clone D17): little effect on telomeric gene expression
CTCF cons: 6 repeats of the consensus CTCF binding site separated by random linkers (nucleic acid, CTCF consensus binding sites) DNA: GCGATGCCGCCCCCTGGTGGCCAGTAATCGCAAGGCTAAGTAATCACTGCCCCCTGGTGGCCGCCAGTCTGATACGCGTTTTACAACCGCCCCCTGGTGGCCGTGGGAGACATCTAGTGCACGAGAGTGCCCCCTGGTGGCCAAACCGTAGCCTAGGCATATTGTACTGCCCCCTGGTGGCCGGCAATATGGCTAGCGATGACTCGGCGCCCCCTGGTGGCCACTACGTTCTAGTG |  | already showed significant activity | enhancer-blocking (insulator) activity ([3]; listed as Consensus binding sites for CTCF): able to show the same activity, with no significant improvement
12×CTCF: 12 copies of consensus CTCF binding sites with random spacers, 472 bp (nucleic acid, Consensus binding sites for CTCF (12copies)) DNA: GCGATGCCGCCCCCTGGTGGCCAGTAATCGCAAGGCTAAGTAATCACTGCCCCCTGGTGGCCGCCAGTCTGATACGCGTTTTACAACCGCCCCCTGGTGGCCGTGGGAGACATCTAGTGCACGAGAGTGCCCCCTGGTGGCCAAACCGTAGCCTAGGCATATTGTACTGCCCCCTGGTGGCCGGCAATATGGCTAGCGATGACTCGGCGCCCCCTGGTGGCCACTACGTTCTAGTGGCGATGCCGCCCCCTGGTGGCCAGTAATCGCAAGGCTAAGTAATCACTGCCCCCTGGTGGCCGCCAGTCTGATACGCGTTTTACAACCGCCCCCTGGTGGCCGTGGGAGACATCTAGTGCACGAGAGTGCCCCCTGGTGGCCAAACCGTAGCCTAGGCATATTGTACTGCCCCCTGGTGGCCGGCAATATGGCTAGCGATGACTCGGCGCCCCCTGGTGGCCACTACGTTCTAGTG |  | as potent as the complete 1.2 kb cHS4 element; also recorded: comparable to the one of the full length cHS4; also recorded: fully reproduced the insulation effect; also recorded: able to reconstitute the enhancer blocking activity mediated by the full-length 1.2 kb cHS4 | 
